Among the data in PubChem BioAssay (NCI) are GI50 and TGI values, retold here.

Among the test systems are 786-0 renal; SK-MEL-2 melanoma; NCI-H460 lung; SK-MEL-5 melanoma; HT29 colon; RXF 393 renal; OVCAR-4 ovarian; SF-539 CNS; HCC-2998 colon; CCRF-CEM leukemia.
What all share (experiment): inhibition of tumour cell growth, NCI panel, 48 h

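Five concentrations, 48 hours, 96-well plates. The concentration for 50% growth inhibition is given as GI50. TGI is the concentration that stops growth completely.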

Regarding `CCCCN(CCCC)c1ccc(C(=N)c2ccc(N(CCCC)CCCC)cc2)cc1`, the GI50 was 0.847 µM in the test with 786-0 renal; 0.387 µM in the test on SK-MEL-2 melanoma; 0.773 µM in the test on NCI-H460 lung; 0.547 µM with SK-MEL-5 melanoma; 0.282 µM in the test on HT29 colon; 0.545 µM with RXF 393 renal. The GI50 in the test on OVCAR-4 ovarian was 0.373 µM; in the test on SF-539 CNS, 1.49 µM; in the test with HCC-2998 colon, 0.442 µM; in the test with CCRF-CEM leukemia, 0.557 µM. Moreover, the TGI with 786-0 renal is 2.25 µM; with SK-MEL-2 melanoma, 1.31 µM; in the test with NCI-H460 lung it was 2.13 µM; in the test on SK-MEL-5 melanoma, 1.61 µM; with HT29 colon it was 1.03 µM; in the test with RXF 393 renal, 1.62 µM. For the same compound, the TGI in the test on OVCAR-4 ovarian worked out at 1.4 µM; with SF-539 CNS it was 2.95 µM; in the test on HCC-2998 colon, 1.65 µM; in the test with CCRF-CEM leukemia, 2.27 µM.

On to `C=C1C(=O)OC2C1C(OC(=O)/C(C)=C/C)CC(O)(CCl)C1C(O)C3OC3(C)C21O` (stereo not given), for which the TGI is 39 µM in the test on 786-0 renal; above 50 µM in the test on SK-MEL-2 melanoma; above 50 µM in the test on NCI-H460 lung; above 50 µM in the test with SK-MEL-5 melanoma; above 50 µM in the test on HT29 colon; 26 µM in the test on RXF 393 renal. In addition, the TGI in the test on OVCAR-4 ovarian, in the test on SF-539 CNS, in the test with HCC-2998 colon and in the test with CCRF-CEM leukemia was above 50 µM in each case.

In the case of `O=C1CC(S(=O)(=O)O)C=C1Nc1cccc(Cl)c1` (stereo not given), the TGI with 786-0 renal, in the test with SK-MEL-2 melanoma, with NCI-H460 lung, in the test on SK-MEL-5 melanoma, in the test with HT29 colon and with RXF 393 renal was above 100 µM throughout. The TGI in the test on OVCAR-4 ovarian, with SF-539 CNS, in the test with HCC-2998 colon and in the test with CCRF-CEM leukemia was above 100 µM throughout.

On to `CC1=C2C(=CC(C)(C)C2O)C(=O)C(C)(O)C12CC2` (stereo not given), for which the TGI in the test on 786-0 renal is 0.0388 µM; with SK-MEL-2 melanoma, 0.0283 µM; with NCI-H460 lung, 0.0412 µM; in the test on SK-MEL-5 melanoma, 0.0219 µM; in the test with HT29 colon it was 0.0311 µM; in the test on RXF 393 renal it was 0.0194 µM. The TGI was 0.0209 µM with OVCAR-4 ovarian, 0.0604 µM with SF-539 CNS, 0.0268 µM in the test on HCC-2998 colon and 0.126 µM in the test on CCRF-CEM leukemia. Also, the GI50 in the test on SK-MEL-2 melanoma is 0.0108 µM.

Consider `COc1ccc(C(=O)c2cc3c(N)c(C(=O)Nc4cccc5ccccc45)sc3nc2C)cc1`, for which the GI50 is 0.305 µM in the test with 786-0 renal; above 50 µM in the test with SK-MEL-2 melanoma; 0.18 µM with NCI-H460 lung; 0.193 µM in the test on SK-MEL-5 melanoma; 0.183 µM in the test with HT29 colon; 0.088 µM with RXF 393 renal. Also, the GI50 was 1.15 µM in the test on OVCAR-4 ovarian, 0.126 µM in the test on SF-539 CNS, 0.424 µM in the test on HCC-2998 colon and 0.199 µM in the test with CCRF-CEM leukemia. In addition, the TGI in the test with 786-0 renal was above 50 µM; in the test on SK-MEL-2 melanoma it was above 50 µM; with NCI-H460 lung, above 22.5 µM; in the test on SK-MEL-5 melanoma, 1.4 µM; in the test with HT29 colon, above 50 µM; with RXF 393 renal, above 50 µM. For the same compound, the TGI in the test on OVCAR-4 ovarian, with HCC-2998 colon and in the test with CCRF-CEM leukemia was above 50 µM in each case.

`COC(=O)C1=C(c2cc(OC)c(OC)c(OC)c2)OC(c2ccc(OC)c(OC)c2)C1` (stereo not given): the TGI with 786-0 renal is above 100 µM; in the test with SK-MEL-2 melanoma it was above 100 µM; with NCI-H460 lung it was above 100 µM; with SK-MEL-5 melanoma, 93.7 µM; in the test on HT29 colon it was above 100 µM; in the test with RXF 393 renal it was above 100 µM. Besides, the TGI in the test on OVCAR-4 ovarian, in the test on SF-539 CNS, with HCC-2998 colon and in the test on CCRF-CEM leukemia was above 100 µM throughout.

As to `O=C(Nc1ccc(Cl)cc1)Nc1ccc(Nc2nncc3ccccc23)cc1`, the GI50 was 3.09 µM in the test on 786-0 renal; 2.7 µM in the test on SK-MEL-2 melanoma; 2.91 µM in the test on NCI-H460 lung; 2.31 µM in the test on SK-MEL-5 melanoma; 2.65 µM in the test on HT29 colon; 4.28 µM with RXF 393 renal. Further, the GI50 is 1.97 µM in the test on OVCAR-4 ovarian, 2.88 µM in the test on SF-539 CNS, 3.26 µM with HCC-2998 colon and 2.57 µM in the test with CCRF-CEM leukemia. Also, the TGI with 786-0 renal came to 25.2 µM; in the test on SK-MEL-2 melanoma it was 7.7 µM; in the test on NCI-H460 lung, 11.9 µM; in the test on SK-MEL-5 melanoma, 6.82 µM; with HT29 colon, 14.1 µM; in the test on RXF 393 renal it was 21.4 µM. In addition, the TGI with OVCAR-4 ovarian came out at 8.17 µM; with SF-539 CNS, 11.5 µM; with HCC-2998 colon it was 19.8 µM; with CCRF-CEM leukemia it was 17 µM.

For the compound `CC(=O)C1C(=O)C(=O)N(c2ccccc2C(C)C)C1=O` (stereo not given), the TGI in the test on 786-0 renal, in the test with SK-MEL-2 melanoma, in the test on NCI-H460 lung, in the test with SK-MEL-5 melanoma, with HT29 colon and with RXF 393 renal was above 100 µM in each case. The TGI in the test with OVCAR-4 ovarian, in the test on SF-539 CNS, with HCC-2998 colon and in the test on CCRF-CEM leukemia was above 100 µM each time.

Consider `CC1=C(CO)C(=O)O[C@@H]([C@@H](C)[C@H]2CC[C@H]3[C@@H]4C[C@@H](O)[C@@]5(O)CC=CC(=O)[C@]5(C)[C@H]4CC[C@]23C)C1`, for which the TGI with 786-0 renal is 90.8 µM; with SK-MEL-2 melanoma, above 100 µM; in the test with NCI-H460 lung, 38.3 µM; in the test on SK-MEL-5 melanoma it was above 100 µM; in the test on HT29 colon it was above 100 µM; in the test with RXF 393 renal, 68.6 µM. Besides, the TGI in the test on OVCAR-4 ovarian, in the test on SF-539 CNS, in the test with HCC-2998 colon and with CCRF-CEM leukemia was above 100 µM each time.

For the compound `O=C1c2ccccc2-c2c1c1ccccc1c(=O)n2CCN1CCOCC1`, the GI50 was above 100 µM in the test with 786-0 renal; above 100 µM in the test with SK-MEL-2 melanoma; 55.4 µM in the test with NCI-H460 lung; 49 µM in the test on SK-MEL-5 melanoma; 57.8 µM in the test with HT29 colon; 49 µM in the test on RXF 393 renal. For the same compound, the GI50 in the test with OVCAR-4 ovarian was above 100 µM; in the test on SF-539 CNS it was 84.9 µM; with HCC-2998 colon it was 42.5 µM; with CCRF-CEM leukemia, 49.1 µM. The TGI in the test with 786-0 renal, in the test on SK-MEL-2 melanoma, with NCI-H460 lung, in the test on SK-MEL-5 melanoma, in the test with HT29 colon and in the test with RXF 393 renal was above 100 µM each time. The TGI in the test with OVCAR-4 ovarian, in the test on SF-539 CNS, in the test on HCC-2998 colon and with CCRF-CEM leukemia was above 100 µM throughout.
